From article PMC7057854, “Adapting free energy perturbation simulations for large macrocyclic ligands: how to dissect contributions from direct binding and free ligand flexibility” (Chemical Science, 2020)

Experiments:
[1] = parameters: method as in earlier work; details: octanol-water partitioning, received from literature; ref 3–5 (supplement); cited from earlier work
From the text: page 19: Table S8: Reference compounds used to establish a calibration curve for LogD determination.

[2] = HPLC-based LogD determination; details: for tR (retention time used for LogD determination): HPLC-UV 254 nm, Nucleodur C18 Gravity, 50 mM ammonium acetate pH 7.4 (A) / acetonitrile (B), 0 min 0 % B to 20 min 95 % B, 1 mL/min, acetylated peptides, triplicates
[3] = target: T1, 14-3-3ζ full length His-tag (Homo sapiens, UniProt P63104); assay: biochemical; format: binding; details: for BEI (binding efficiency index): BEI = pKd/(MW × 10^–3), pKd from direct FP of FITC-labelled peptides
T1 sequence (P63104 1-245): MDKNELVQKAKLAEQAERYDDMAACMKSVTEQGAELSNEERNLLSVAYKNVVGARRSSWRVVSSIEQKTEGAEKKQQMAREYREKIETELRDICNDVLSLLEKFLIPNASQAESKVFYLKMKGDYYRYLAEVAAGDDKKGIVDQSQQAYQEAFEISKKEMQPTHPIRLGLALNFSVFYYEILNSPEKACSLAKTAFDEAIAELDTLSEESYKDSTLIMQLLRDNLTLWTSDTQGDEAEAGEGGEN

[4] = target: T1, 14-3-3ζ full length His-tag; assay: biochemical

**Q.** For `COc1ccc([C@@H]2Sc3ccccc3N(CCN(C)C)C(=O)[C@@H]2OC(C)=O)cc1` [Diltiazem, reference compound], which “LogD of reference compound” value [1] is on record?
**A.** 2.70

**Q.** And the “tR (retention time used for LogD determination)” value [2]?
**A.** 15.31±0.002 min

**Q.** Which “tR (retention time used for LogD determination)” value [2] does the source give for `CC(CCc1ccccc1)NCC(O)c1ccc(O)c(C(N)=O)c1` (stereo not drawn) [Labetolol, reference compound] here?
**A.** 12.14±0.010 min

**Q.** With `COCCc1ccc(OCC(O)CNC(C)C)cc1` (stereo not drawn) [Metoprolol, reference compound] as the molecule, how does the “LogD of reference compound” value [1] read?
**A.** -0.06

**Q.** And the “tR (retention time used for LogD determination)” value [2]?
**A.** 10.21±0.024 min

**Q.** For `CC(C)C[C@H](NC(=O)[C@H](CC(=O)O)NC(=O)[C@H](CC(C)C)NC(=O)[C@]1(C)CCCCCCCC[C@@](C)(NC(=O)CNC(=O)[C@H](CCC(N)=O)NC(=O)COCCOCCNC(=S)Nc2ccc3c(c2)C(=O)OC32c3ccc(O)cc3Oc3cc(O)ccc32)C(=O)N[C@@H](CC(C)C)C(=O)N[C@@H](CC(=O)O)C(=O)N1)C(=O)N[C@@H](C)C(=O)N[C@@H](C)C(N)=O` [S430A], which Kd [3] is on record?
**A.** 0.072 ± 0.005 µM

**Q.** For `CC(=O)N[C@@H](CCC(N)=O)C(=O)NCC(=O)N[C@]1(C)CCCCCCCC[C@@](C)(C(=O)N[C@@H](CC(C)C)C(=O)N[C@@H](CC(=O)O)C(=O)N[C@@H](CC(C)C)C(=O)N[C@@H](C)C(=O)N[C@@H](CO)C(N)=O)NC(=O)[C@H](CC(=O)O)NC(=O)[C@H](CC(C)C)NC1=O` [compound 1], which “tR (retention time used for LogD determination)” value [2] is on record?
**A.** 12.58±0.197 min

**Q.** And the chromatographic logD ([2]; pH 7.4)?
**A.** 1.15 ± 0.068

**Q.** Which results are given for `CC(C)C[C@H](NC(=O)[C@H](CC(=O)O)NC(=O)[C@H](CC(C)C)NC(=O)[C@]1(C)CCCCCCCC[C@@](C)(NC(=O)CNC(=O)[C@H](CCC(N)=O)NC(=O)COCCOCCNC(=S)Nc2ccc3c(c2)C(=O)OC32c3ccc(O)cc3Oc3cc(O)ccc32)C(=O)N[C@@H](CC(C)C)C(=O)N[C@@H](CC(=O)O)C(=O)N1)C(=O)N[C@@H](C)C(N)=O` [compound 2]?
**A.** Kd [3]: 0.355 µM; BEI (binding efficiency index) [3]: 4.07

**Q.** With `CC(C)C[C@H](NC(=O)[C@H](CC(=O)O)NC(=O)[C@H](CC(C)C)NC(=O)[C@]1(C)CCCCCCCC[C@@](C)(NC(=O)CNC(=O)[C@H](CCC(N)=O)NC(=O)COCCOCCNC(=S)Nc2ccc3c(c2)C(=O)OC32c3ccc(O)cc3Oc3cc(O)ccc32)C(=O)N[C@@H](CC(C)C)C(=O)N[C@@H](CC(=O)O)C(=O)N1)C(N)=O` [compound 3] as the molecule, how does the Kd [3] read?
**A.** 2.88 µM

**Q.** And the “BEI (binding efficiency index)” value [3]?
**A.** 3.66

**Q.** Which results are given for `CC(C)C[C@@H]1NC(=O)[C@](C)(NC(=O)CNC(=O)[C@H](CCC(N)=O)NC(=O)COCCOCCNC(=S)Nc2ccc3c(c2)C(=O)OC32c3ccc(O)cc3Oc3cc(O)ccc32)CCCCCCCC[C@@](C)(C(=O)N[C@@H](CC(C)C)C(=O)N[C@@H](CC(=O)O)C(N)=O)NC(=O)[C@H](CC(=O)O)NC1=O` [compound 4]?
**A.** Kd [3]: > 100 µM; BEI (binding efficiency index) [3]: 2.86

**Q.** What does the source list for `CC(=O)NCC(=O)N[C@]1(C)CCCCCCCC[C@@](C)(C(=O)N[C@@H](CC(C)C)C(=O)N[C@@H](CC(=O)O)C(=O)N[C@@H](CC(C)C)C(N)=O)NC(=O)[C@H](CC(=O)O)NC(=O)[C@H](CC(C)C)NC1=O` [compound 5]?
**A.** tR (retention time used for LogD determination) [2]: 12.75±0.003 min; chromatographic logD ([2]; pH 7.4): 1.26; Δlog D relative to 7 (H/H) ([2]; pH 7.4): 0.63

**Q.** For `CC(C)C[C@H](NC(=O)[C@H](CC(=O)O)NC(=O)[C@H](CC(C)C)NC(=O)[C@]1(C)CCCCCCCC[C@@](C)(NC(=O)COCCOCCNC(=S)Nc2ccc3c(c2)C(=O)OC32c3ccc(O)cc3Oc3cc(O)ccc32)C(=O)N[C@@H](CC(C)C)C(=O)N[C@@H](CC(=O)O)C(=O)N1)C(N)=O` [compound 6], which Kd [3] is on record?
**A.** 12.3 µM

**Q.** And the “BEI (binding efficiency index)” value [3]?
**A.** 3.70

**Q.** Which “tR (retention time used for LogD determination)” value [2] does the source give for `CC(=O)NCC(=O)N[C@@H]1CCCCCCCC[C@@H](C(=O)N[C@@H](CC(C)C)C(=O)N[C@@H](CC(=O)O)C(=O)N[C@@H](CC(C)C)C(N)=O)NC(=O)[C@H](CC(=O)O)NC(=O)[C@H](CC(C)C)NC1=O` [compound 7] here?
**A.** 11.70±0.007 min

**Q.** What about the chromatographic logD ([2]; pH 7.4) of the same molecule?
**A.** 0.63 ± 0.019

**Q.** With `CC(=O)NCC(=O)N[C@@H]1CCCCCCCC[C@@](C)(C(=O)N[C@@H](CC(C)C)C(=O)N[C@@H](CC(=O)O)C(=O)N[C@@H](CC(C)C)C(N)=O)NC(=O)[C@H](CC(=O)O)NC(=O)[C@H](CC(C)C)NC1=O` [compound 8] as the molecule, how does the “tR (retention time used for LogD determination)” value [2] read?
**A.** 12.37±0.003 min

**Q.** And the LogD ([2]; pH 7.4)?
**A.** 1.03±0.031

**Q.** What does the source list for `CC(=O)NCC(=O)N[C@]1(C)CCCCCCCC[C@@H](C(=O)N[C@@H](CC(C)C)C(=O)N[C@@H](CC(=O)O)C(=O)N[C@@H](CC(C)C)C(N)=O)NC(=O)[C@H](CC(=O)O)NC(=O)[C@H](CC(C)C)NC1=O` [compound 9]?
**A.** Ki [4]: > 31.6 µM; tR (retention time used for LogD determination) [2]: 12.35±0.003 min; chromatographic logD ([2]; pH 7.4): 1.01 ± 0.031

**Q.** For `CC[C@@]1(C(=O)N[C@@H](CC(C)C)C(=O)N[C@@H](CC(=O)O)C(=O)N[C@@H](CC(C)C)C(N)=O)CCCCCCCC[C@@](C)(NC(=O)CNC(C)=O)C(=O)N[C@@H](CC(C)C)C(=O)N[C@@H](CC(=O)O)C(=O)N1` [compound 10], which “tR (retention time used for LogD determination)” value [2] is on record?
**A.** 12.78±0.009 min

**Q.** What about the chromatographic logD ([2]; pH 7.4) of the same molecule?
**A.** 1.28 ± 0.04

**Q.** What does the source list for `CC[C@@]1(NC(=O)CNC(C)=O)CCCCCCCC[C@@](C)(C(=O)N[C@@H](CC(C)C)C(=O)N[C@@H](CC(=O)O)C(=O)N[C@@H](CC(C)C)C(N)=O)NC(=O)[C@H](CC(=O)O)NC(=O)[C@H](CC(C)C)NC1=O` [compound 11]?
**A.** tR (retention time used for LogD determination) [2]: 12.88±0.003 min; chromatographic logD ([2]; pH 7.4): 1.33 ± 0.041

**Q.** Which “tR (retention time used for LogD determination)” value [2] does the source give for `CC[C@@]1(NC(=O)CNC(C)=O)CCCCCCCC[C@@](CC)(C(=O)N[C@@H](CC(C)C)C(=O)N[C@@H](CC(=O)O)C(=O)N[C@@H](CC(C)C)C(N)=O)NC(=O)[C@H](CC(=O)O)NC(=O)[C@H](CC(C)C)NC1=O` [compound 12] here?
**A.** 12.92±0.001 min

**Q.** What about the chromatographic logD ([2]; pH 7.4) of the same molecule?
**A.** 1.35

**Q.** What about the “Δlog D relative to 5 (Me/Me)” value ([2]; pH 7.4) of the same molecule?
**A.** 0.09
